US20240262815A1, “HETEROARYL DERIVATIVE, METHOD FOR PREPARING SAME, AND PHARMACEUTICAL COMPOSITION COMPRISING SAME AS ACTIVE INGREDIENT” (VORONOI INC., priority 2021, published 2024)

System: SK-BR-3 cancer cells
Test: Inhibitory activity against proliferation of SK-BR-3 cancer cells (CellTiter-Glo)
Assay type: cell-based
Conditions: ErbB2-overexpressing SK-BR-3 cells, 120 hours after treatment
Protocol: To evaluate the inhibitory activity of a compound according to the present invention against the proliferation of ErbB2-overexpressing cancer cells, the following experiment were performed.
10% FBS-added McCOY'S 5A was used for SK-BR-3 cancer cells. 20% FBS-added RPMI-1640 was used for BT-474 cancer cells. Transduced Ba/F3 cells were cultured in a RPMI-1640 medium to which 1 μg/ml puromycin (Invitrogen) was added.
48 hours before compound treatment, each type of the SK-BR-3 and BT-474 cells were seeded at 5,000 cells/well in a white clear bottom 96 well plate (Corning). The compound was diluted in dimethyl sulfoxide (SK-BR-3: 3-fold dilution, a total of 12 concentrations, BT-474: […], a total of 12 concentrations) and injected at 1 μl to have the final concentration of 0.2 nM to 5 μM. As for measurement of live cells, 120 hours after treatment with the compound, a CellTiter-Glo luminescent cell-viability reagent (Promega) was used to store the cells at room temperature for 10 minutes, followed by measurement of luminescence using a reader (SynergyNeo, Biotek). Each test was repeated three times.
The result values were calculated as a cell growth rate (%) compared to the control group. A graph was plotted using the GraphPad Prism version 8.3.0 program, and GI50 values were calculated.

Row | SMILES | GI50 (Homo sapiens, SK-BR-3, 120 h) | GI50
1 | C=CC(=O)Nc1cc(Nc2cc(N3OCC[C@@H]3c3cc(F)cc(-c4cccnc4)c3)ncn2)c(OC)cc1N1CCN(C)CC1 [Example 177, (R)-N-(5-((6-(3-(3-fluoro-5-(pyr-idin-3-yl)phenyl)-isoxazolidin-2-yl)-pyrimidin-4-yl)-amino)-4-meth-oxy-2-(4-methyl-piperazin-1-yl)-phenyl)acrylamide] | 50 to 500 nM | 
2 | C=CC(=O)Nc1cc(Nc2cc(N3OCC[C@@H]3c3cc(F)cc(-c4cccnc4)c3)ncn2)c(OC)cc1N(C)CCN(C)C [Example 178, (R)-N-(2-((2-(dimethylamino)-ethyl)(methyl)-amino)-5-((6-(3-(3-fluoro-5-(pyr-idin-3-yl)phenyl)-isoxazolidin-2-yl)-pyrimidin-4-yl)-amino)-4-methoxy-phenyl)acrylamide] | < 50 nM | 
3 | C=CC(=O)Nc1cc(Nc2cc(N3OCCC3c3cccc(-c4cccs4)c3)ncn2)c(OC)cc1N1CCC(N2CCN(C3CC3)CC2)CC1 (centres unmarked) [Example 182, N-(2-(4-(4-cyclo-propylpiperazin-1-yl)piperidin-1-yl)-4-methoxy-5-((6-(3-(3-(thiophen-2-yl)phenyl)isoxazol-idin-2-yl)pyrim-idin-4-yl)amino)-phenyl)acrylamide] | < 50 nM | 
4 | C=CC(=O)Nc1cc(Nc2cc(N3OCC[C@@H]3c3cccc(C(=O)OC4CCCCC4)c3)ncn2)c(OC)cc1N1CCC(N2CCN(C3CC3)CC2)CC1 [Example 185, cyclohexyl (R)-3-(2-(6-((5-acryl-amido-4-(4-(4-cyclopropylpiper-azin-1-yl)piper-idin-1-yl)-2-meth-oxyphenyl)amino)-pyrimidin-4-yl)-isoxazolidin-3-yl)-benzoate] | 50 to 500 nM | 
5 | C=CC(=O)Nc1cc(Nc2cc(N3OCC[C@@H]3c3cccc(-c4ccccc4)c3)ncn2)c(OC)cc1N1CCC(N2CCN(C3CC3)CC2)CC1 [Example 190, (R)-N-(5-((6-(3-([1,1′-biphenyl]-3-yl)isoxazolidin-2-yl)pyrimidin-4-yl)-amino)-2-(4-(4-cyclopropylpiper-azin-1-yl)piper-idin-1-yl)-4-meth-oxyphenyl)acryl-amide] | < 50 nM | 
6 | C=CC(=O)Nc1cc(Nc2cc(N3OCC[C@@H]3c3cc(F)cc(Oc4cccc(F)c4)c3)ncn2)c(OC)cc1N1CCN(C)CC1 [Example 191, (R)-N-(5-((6-(3-(3-fluoro-5-(3-fluoro-phenoxy)phenyl)-isoxazolidin-2-yl)-pyrimidin-4-yl)-amino)-4-meth-oxy-2-(4-methyl-piperazin-1-yl)-phenyl)acrylamide] | 50 to 500 nM | 
7 | C=CC(=O)Nc1cc(Nc2cc(N3OCC[C@@H]3c3cc(F)cc(-c4ccsc4)c3)ncn2)c(OC)cc1N1CCN(C)CC1 [Example 193, (R)-N-(5-((6-(3-(3-fluoro-5-(thiophen-3-yl)phenyl)isox-azolidin-2-yl)pyr-imidin-4-yl)amino)-4-methoxy-2-(4-methylpiperazin-1-yl)phenyl)acryl-amide] | < 50 nM | 
8 | C=CC(=O)Nc1cc(Nc2cc(N3OCC[C@@H]3c3cc(F)cc(-c4ccsc4)c3)ncn2)c(OC)cc1N(C)CCN(C)C [Example 194, (R)-N-(2-((2-(dimethylamino)-ethyl)(methyl)-amino)-5-((6-(3-(3-fluoro-5-(thio-phen-3-yl)phenyl)-isoxazolidin-2-yl)-pyrimidin-4-yl)-amino)-4-methoxy-phenyl)acrylamide] | < 50 nM | 
9 | C=CC(=O)Nc1cc(Nc2cc(N3OCC[C@@H]3c3cc(F)cc(OCc4ccccn4)c3)ncn2)c(OC)cc1N1CCN(C)CC1 [Example 195, (R)-N-(5-((6-(3-(3-fluoro-5-(pyr-idin-2-ylmethoxy)-phenyl)isoxazol-idin-2-yl)pyrim-idin-4-yl)amino)-4-methoxy-2-(4-methylpiperazin-1-yl)phenyl)-acrylamide] | < 50 nM | 
10 | C=CC(=O)Nc1cc(Nc2cc(N3OCC[C@@H]3c3cc(F)cc(OCc4ccccn4)c3)ncn2)c(OC)cc1N(C)CCN(C)C [Example 196, (R)-N-(2-((2-(dimethylamino)-ethyl)(methyl)-amino)-5-((6-(3-(3-fluoro-5-(pyr-idin-2-ylmethoxy)-phenyl)isoxazol-idin-2-yl)pyrim-idin-4-yl)amino)-4-methoxyphen-yl)acrylamide] | < 50 nM | 
11 | C=CC(=O)Nc1cc(Nc2cc(N3OCCC3c3cccc(-c4ccc5ncnn5c4)c3)ncn2)c(OC)cc1N1CCN(C)CC1 (centres unmarked) [Example 197, N-(5-((6-(3-(3-([1,2,4]triazolo-[1,5-a]pyridin-6-yl)phenyl)isoxazol-idin-2-yl)pyrim-idin-4-yl)amino)-4-methoxy-2-(4-methylpiperazin-1-yl)phenyl)-acrylamide] | < 50 nM | 
12 | C=CC(=O)Nc1cc(Nc2cc(N3OCCC3c3cccc(-c4ccc5ncnn5c4)c3)ncn2)c(OC)cc1N(C)CCN(C)C (centres unmarked) [Example 198, N-(5-((6-(3-(3-([1,2,4]triazolo-[1,5-a]pyridin-6-yl)phenyl)isoxazol-idin-2-yl)pyrim-idin-4-yl)amino)-2-((2-(dimethyl-amino)ethyl)-(methyl)amino)-4-methoxyphen-yl)acrylamide] | < 50 nM | 
13 | C=CC(=O)Nc1cc(Nc2cc(N3OCC[C@@H]3c3cc(F)cc(Oc4cccc(F)c4)c3)ncn2)c(OC)cc1N(C)CCN(C)C [Example 199, (R)-N-(2-((2-(dimethylamino)-ethyl)(methyl)-amino)-5-((6-(3-(3-fluoro-5-(3-fluorophenoxy)-phenyl)isoxazol-idin-2-yl)pyrim-idin-4-yl)amino)-4-methoxyphen-yl)acrylamide] | 50 to 500 nM | 
14 | C=CC(=O)Nc1cc(Nc2cc(N3OCCC3c3cccc(-c4cnc5ccnn5c4)c3)ncn2)c(OC)cc1N(C)CCN(C)C (centres unmarked) [Example 202, N-(2-((2-(dimethyl-amino)ethyl)-(methyl)amino)-4-methoxy-5-((6-(3-(3-(pyrazolo[1,5-a]pyrimidin-6-yl)-phenyl)isoxazol-idin-2-yl)pyrim-idin-4-yl)amino)-phenyl)acrylamide] | < 50 nM | 
15 | C=CC(=O)Nc1cc(Nc2cc(N3OCCC3c3cccc(-c4cccn5ccnc45)c3)ncn2)c(OC)cc1N1CCN(C)CC1 (centres unmarked) [Example 203, N-(5-((6-(3-(3-(imidazo[1,2-a]-pyridin-8-yl)phen-yl)isoxazolidin-2-yl)pyrimidin-4-yl)amino)-4-meth-oxy-2-(4-methyl-piperazin-1-yl)-phenyl)acrylamide] | < 50 nM | 
16 | C=CC(=O)Nc1cc(Nc2cc(N3OCCC3c3cccc(-c4cccn5ccnc45)c3)ncn2)c(OC)cc1N(C)CCN(C)C (centres unmarked) [Example 204, N-(2-((2-(dimeth-ylamino)ethyl)-(methyl)amino)-5-((6-(3-(3-(imidazo-[1,2-a]pyridin-8-yl)phenyl)isoxazol-idin-2-yl)pyrim-idin-4-yl)amino)-4-methoxyphen-yl)acrylamide] | < 50 nM | 

More lines, now with the values ahead:

Row | GI50 (Homo sapiens, SK-BR-3, 120 h) | GI50 | SMILES
17 | 500 to 5000 nM |  | C=CC(=O)Nc1cc(Nc2cc(N3OCC[C@@H]3c3cc(F)cc(-c4cccc(F)c4)c3)ncn2)c(OC)cc1N1CCC(N2CCN(C3CC3)[C@H](C)C2)CC1 [Example 206]
18 | < 50 nM |  | C=CC(=O)Nc1cc(Nc2cc(N3OCC[C@@H]3c3cc(F)cc(-c4cccc(F)c4)c3)ncn2)c(OC)cc1N1CCC(N2CCOCC2)CC1 [Example 207, (R)-N-(5-((6-(3-(3′,5-difluoro-[1,1′-biphenyl]-3-yl)isoxazolidin-2-yl)pyrimidin-4-yl)-amino)-4-methoxy-2-(4-morpholino-piperidin-1-yl)-phenyl)acrylamide]
19 | < 50 nM |  | C=CC(=O)Nc1cc(Nc2cc(N3OCC[C@@H]3c3cc(F)cc(-c4cccc(F)c4)c3)ncn2)c(OC)cc1N(C)CCN(C)C [Example 208, (R)-N-(5-((6-(3-(3′,5-difluoro-[1,1′-biphenyl]-3-yl)-isoxazolidin-2-yl)-pyrimidin-4-yl)-amino)-2-((2-(dimethylamino)-ethyl)(methyl)-amino)-4-methoxy-phenyl)acrylamide]
20 | < 50 nM |  | C=CC(=O)Nc1cc(Nc2cc(N3OCC[C@@H]3c3cc(F)cc(-c4cccc5ncnn45)c3)ncn2)c(OC)cc1N1CCN(C)CC1 [Example 209, (R)-N-(5-((6-(3-(3-([1,2,4]triazolo-[1,5-a]pyridin-5-yl)-5-fluorophen-yl)isoxazolidin-2-yl)pyrimidin-4-yl)-amino)-4-methoxy-2-(4-methylpiper-azin-1-yl)phenyl)-acrylamide]
21 | < 50 nM |  | C=CC(=O)Nc1cc(Nc2cc(N3OCC[C@@H]3c3cc(F)cc(-c4cccc5ncnn45)c3)ncn2)c(OC)cc1N(C)CCN(C)C [Example 210, (R)-N-(5-((6-(3-(3-([1,2,4]triazolo-[1,5-a]pyridin-5-yl)-5-fluorophen-yl)isoxazolidin-2-yl)pyrimidin-4-yl)-amino)-2-((2-(dimethylamino)-ethyl)(methyl)-amino)-4-methoxy-phenyl)acrylamide]
22 | 50 to 500 nM |  | C=CC(=O)Nc1cc(Nc2cc(N3OCCC3c3cccc(-c4cccc(F)c4)c3)ncn2)c(OC)cc1N1CCN(C)CC1 (centres unmarked) [Example 211, N-(5-((6-(3-(3′-fluoro-[1,1′-biphenyl]-3-yl)-isoxazolidin-2-yl)-pyrimidin-4-yl)-amino)-4-methoxy-2-(4-methylpiper-azin-1-yl)phenyl)-acrylamide]
23 |  | 50 to 500 nM | C=CC(=O)Nc1cc(Nc2cc(N3OCCC3c3cccc(-c4cccc(F)c4)c3)ncn2)c(OC)cc1N(C)CCN(C)C (centres unmarked) [Example 212, N-(2-((2-(dimeth-yl-amino)ethyl)-(methyl)amino)-5-((6-(3-(3′-fluoro-[1,1′-biphenyl]-3-yl)isoxazolidin-2-yl)pyrimidin-4-yl)amino)-4-meth-oxyphenyl)acryl-amide]
